Measured values: patent publication US11058114B2, “Use of n-arylamidine-substituted trifluoroethyl sulphoxide derivatives for controlling pests by watering, droplet application, dip application, soil injection or by treating seed” (BAYER CROPSCIENCE AKTIENGESELLSCHAFT, priority 2014, dated 2021)

Key:
[1] = test system: greenhouse red spider mite (Tetranychus urticae), OP-resistant; assay: Tetranychus urticae drench test, OP-resistant (TETRUR DRENCH); type: in vivo; settings: bean plants (Phaseolus vulgaris) in soil pots, 100% = all spider mites killed; for pest or weed control at 0.8 ppm / pest or weed control at 4 ppm / pest or weed control at 0.16 ppm: Tetranychus urticae, in Phaseolus vulgaris, soil, 336 h, 14 d, read-out: % effect after 14 d
Experimental: Tetranychus urticae—Drench Test, OP-Resistant (TETRUR)
(§1) Solvent: 7 parts by weight of dimethylformamide
Emulsifier: 2 parts by weight of alkylaryl polyglycol ether
To produce a suitable active compound preparation, 1 part by weight of active compound was mixed with the specified amounts of solvent and emulsifier, and the concentrate was diluted with water to the desired concentration, with the volume of soil which was drenched being taken into account. It was ensured that a concentration of 40 ppm of emulsifier in the soil was not exceeded. To produce further test concentrations, water was used for dilution.
Bean plants (Phaseolus vulgaris), in soil pots, which were heavily infested by all stages of the greenhouse red spider mite (Tetranychus urticae) were watered with an active compound preparation of the desired concentration.
(§2) After the desired period of time, the efficacy in % was determined. 100% means that all the spider mites have been killed; 0% means that no spider mites have been killed.

[2] = test system: greenhouse red spider mite (Tetranychus urticae), OP-resistant; assay: Tetranychus urticae spray test, OP-resistant (TETRUR SPRAY); type: in vivo; settings: bean plants (Phaseolus vulgaris), 100% = all spider mites killed; for pest or weed control at 0.8 ppm / pest or weed control at 4 ppm / pest or weed control at 0.16 ppm: Tetranychus urticae, 336 h, 14 d, read-out: % effect after 14 d
Experimental: Tetranychus urticae—Spray Test; OP-Resistant (TETRUR)
as §1
Emulsifier: alkylaryl polyglycol ether
To produce a suitable active compound preparation, 1 part by weight of active compound was dissolved using the stated parts by weight of solvent and made up with water containing an emulsifier concentration of 1000 ppm until the desired concentration was attained. To produce further test concentrations, the preparation was diluted with emulsifier-containing water. Ammonium salts and penetrants (rapeseed oil methyl ester) were each added in a concentration of 1000 ppm to the solution of the preparations.
Bean plants (Phaseolus vulgaris) which were heavily infested by all stages of the greenhouse red spider mite (Tetranychus urticae) were sprayed with an active compound preparation of the desired concentration.
as §2

Compound `Cc1cc(F)c(/N=C(\N(C)C)C(F)(F)F)cc1[S+]([O-])CC(F)(F)F` (centres unmarked) [Ib-01] has a pest or weed control at 0.8 ppm [1] of 100%, a pest or weed control at 4 ppm [1] of 100% and a pest or weed control at 0.8 ppm [2] of 0%. The pest or weed control at 4 ppm [2] was 98%.

Work on `Cc1cc(F)c(/N=C(\N)C(F)(F)F)cc1[S+]([O-])CC(F)(F)F` (centres unmarked) [Ib-11] yielded a pest or weed control at 0.8 ppm [1] of 100%, a pest or weed control at 4 ppm [1] of 100% and a pest or weed control at 0.8 ppm [2] of 50%. It also gave a pest or weed control at 4 ppm [2] of 95%.

With `N/C(=N/c1cc([S+]([O-])CC(F)(F)F)c(Cl)cc1Cl)C(F)(F)F` (centres unmarked) [Ib-14] the “% effect after 14 d” value ([1]; 0.16 ppm) was 80% and the “% effect after 14 d” value ([2]; 0.16 ppm) was 0%.

Work on `N/C(=N/c1ccc(C(F)(F)F)c([S+]([O-])CC(F)(F)F)c1)C(F)(F)F` (centres unmarked) [Ib-16] yielded a pest or weed control at 0.16 ppm ([1]; 0.16 ppm) of 99%, a pest or weed control at 0.8 ppm [1] of 100% and a pest or weed control at 0.16 ppm ([2]; 0.16 ppm) of 0%. It also gave a pest or weed control at 0.8 ppm [2] of 40%.

Compound `N/C(=N/c1cc([S+]([O-])CC(F)(F)F)c(Cl)cc1Cl)C(F)(F)F` (centres unmarked) [Ib-17] has a pest or weed control at 0.16 ppm ([1]; 0.16 ppm) of 98%, a pest or weed control at 0.8 ppm [1] of 100% and a pest or weed control at 0.16 ppm ([2]; 0.16 ppm) of 0%. The pest or weed control at 0.8 ppm [2] was 98%.

`N/C(=N/c1cc([S+]([O-])CC(F)(F)F)c(Br)cc1Br)C(F)(F)F` (centres unmarked) [Ib-18] was tested, and the pest or weed control at 0.16 ppm ([1]; 0.16 ppm) was 99%, the pest or weed control at 0.8 ppm [1] was 99% and the pest or weed control at 0.16 ppm ([2]; 0.16 ppm) was 0%. The pest or weed control at 0.8 ppm [2] was 50%.

`Cc1cc(F)c(/N=C(\N)C2(F)CC2)cc1[S+]([O-])CC(F)(F)F` (centres unmarked) [Ib-19] gave a pest or weed control at 0.16 ppm ([1]; 0.16 ppm) of 98%, a pest or weed control at 0.8 ppm [1] of 98% and a pest or weed control at 0.16 ppm ([2]; 0.16 ppm) of 0%. It also gave a pest or weed control at 0.8 ppm [2] of 30%.

Work on `CN/C(=N/c1cc([S+]([O-])CC(F)(F)F)c(Cl)cc1Cl)C(F)(F)F` (centres unmarked) [Ib-21] yielded a pest or weed control at 0.16 ppm ([1]; 0.16 ppm) of 80%, a pest or weed control at 0.8 ppm [1] of 95% and a pest or weed control at 0.16 ppm ([2]; 0.16 ppm) of 0%. For the same compound, the pest or weed control at 0.8 ppm [2] was 90%.

With `Cc1cc(F)c(/N=C(\N)C2(Cl)CC2)cc1[S+]([O-])CC(F)(F)F` (centres unmarked) [Ib-22] the pest or weed control at 0.8 ppm [1] was 90%, the pest or weed control at 4 ppm [1] was 90% and the pest or weed control at 0.8 ppm [2] was 0%. It also gave a pest or weed control at 4 ppm [2] of 30%.

Compound `CN/C(=N/c1cc([S+]([O-])CC(F)(F)F)c(Br)cc1Br)C(F)(F)F` (centres unmarked) [Ib-24] has a pest or weed control at 0.8 ppm [1] of 100% and a pest or weed control at 0.8 ppm [2] of 30%.

Compound `CN(C)/C(=N/c1cc([S+]([O-])CC(F)(F)F)c(Br)cc1Br)C(F)(F)F` (centres unmarked) [Ib-25] has a pest or weed control at 0.8 ppm [1] of 99% and a pest or weed control at 0.8 ppm [2] of 50%.

`CN(C)/C(=N/c1cc([S+]([O-])CC(F)(F)F)c(Cl)cc1Cl)C(F)(F)F` (centres unmarked) [Ib-26] showed a pest or weed control at 0.8 ppm [1] of 95% and a pest or weed control at 0.8 ppm [2] of 0%.

`Cc1cc(F)c(/N=C2\CCCN2CC(F)F)cc1[S+]([O-])CC(F)(F)F` (centres unmarked) [Ib-33] showed a pest or weed control at 0.16 ppm ([1]; 0.16 ppm) of 60%, a pest or weed control at 0.8 ppm [1] of 95% and a pest or weed control at 0.16 ppm ([2]; 0.16 ppm) of 0%. It also gave a pest or weed control at 0.8 ppm [2] of 0%.

For `N/C(=N/c1cc([S+]([O-])CC(F)(F)F)c(Cl)cc1Br)C(F)(F)F` (centres unmarked) [Ib-57], the pest or weed control at 0.16 ppm ([1]; 0.16 ppm) was 90% and the pest or weed control at 0.16 ppm ([2]; 0.16 ppm) was 0%.

In the case of `Cc1cc(F)c(/N=C(\N)c2cnccn2)cc1[S+]([O-])CC(F)(F)F` (centres unmarked) [Ib-62], the pest or weed control at 0.8 ppm [1] is reported as 90%, the pest or weed control at 4 ppm [1] is reported as 90% and the pest or weed control at 0.8 ppm [2] is reported as 0%. For the same compound, the pest or weed control at 4 ppm [2] was 0%.

`N/C(=N/c1cc([S+]([O-])CC(F)(F)F)c(Br)cc1Cl)C(F)(F)F` (centres unmarked) [Ib-68] was tested, and the pest or weed control at 0.16 ppm ([1]; 0.16 ppm) was 98%, the pest or weed control at 0.8 ppm [1] was 100% and the pest or weed control at 0.16 ppm ([2]; 0.16 ppm) was 0%. The pest or weed control at 0.8 ppm [2] was 80%.

Compound `Cc1cc(F)c(/N=C2\CCCN2CC(F)(F)F)cc1[S+]([O-])CC(F)(F)F` (centres unmarked) [Ib-115] has a pest or weed control at 0.8 ppm [1] of 90%, a pest or weed control at 4 ppm [1] of 90% and a pest or weed control at 0.8 ppm [2] of 0%. For the same compound, the pest or weed control at 4 ppm [2] was 0%.

`Cc1cc(F)c(/N=C2\SCC(=O)N2CC(F)(F)F)cc1[S@+]([O-])CC(F)(F)F` [Ib-168] was tested, and the pest or weed control at 0.16 ppm ([1]; 0.16 ppm) was 50%, the pest or weed control at 0.8 ppm [1] was 95% and the pest or weed control at 0.16 ppm ([2]; 0.16 ppm) was 0%. It also gave a pest or weed control at 0.8 ppm [2] of 30%.
